Test results: paper PMC5878144 (Journal of controlled release : official journal of the …, 2018)
Read-outs that look alike come from different tables or passages of the source. Blank lines part the entries; values can stand above or below the compound they belong to.

Assays:
[1] = assay type: in vivo, Macaca nemestrina
[2] = Free ARV compartmental models; assay type: in vivo, Macaca nemestrina; conditions: for CL/F: calculated from population PK parameters; for half-life / k el / Vd/F: male, monkey, sc
[3] = Equilibrium dialysis of DcNP-associated versus free drug; assay type: physicochemical; conditions: TLC-ART101, equilibrium dialysis, 6-8 kDa cut-off membrane
[4] = cited from earlier work
[5] = in vivo; conditions: macaque, sc
[6] = TLC-ART101 mechanism-based pharmacokinetic; conditions: for k21, lymphatic entry rate constant, fast pathway / k31, lymphatic entry rate constant, intermediate pathway / k41, lymphatic entry rate constant, slow pathway / tlag2, lymphatic transit lag time, intermediate pathway / tlag1, lymphatic transit lag time, fast pathway / V5_DcNP, apparent volume of distribution of DcNP-associated ARV / k75, rate constant for release of free ARV from DcNPs in plasma / tlag3, lymphatic transit lag time, slow pathway: TLC-ART101; for k21, lymphatic entry rate constant, fast pathway / k31, lymphatic entry rate constant, intermediate pathway / k41, lymphatic entry rate constant, slow pathway: fixed after manual adjustment
[7] = rat, in vivo; cited from earlier work
[8] = Free formulation, single SC dose, macaques, geometric mean (%CV), N=3
[9] = TLC-ART101, single SC dose, macaques, geometric mean (%CV), N=4
[10] = Free formulation, parameter value (%CV)
[11] = parameter value (%CV), listed as TLC-ART101 Ritonavir
[12] = TLC-ART101 model, free submodel, parameter value (%CV)
[13] = parameter value (%CV), listed as TLC-ART101 Tenofovir
[14] = TLC-ART101 model, free submodel

CL/F, apparent total clearance [1, 8]: 4.64 (14) L/[hr•kg] | Terminal t1/2 ([1]; Free formulation, single SC dose, macaques, geometric mean (%CV), N=3, listed as Lopinavir (LPV)): 8.65 (28) hr | CL/F, apparent total clearance [1, 9]: 0.85 (85) L/[hr•kg] | AUC(0-t) ([1]; male, monkey, plasma, sc): 4350 ng·h/mL | CL/F ([2]; Free formulation, listed as Free Lopinavir): 4.24 L/[hr•kg] | CL/F ([2]; Free formulation, listed as LPV): ~4 L/[hr•kg] | k21, absorption rate constant [2, 10]: 0.7120 (20) 1/hr | half-life ([2]; plasma): 8.85 h | k el ([2]; plasma): 2.18e-05 s⁻¹ | mean fraction of DcNP-associated drug [3]: 92.2%
SMILES: Cc1cccc(C)c1OCC(=O)N[C@@H](Cc1ccccc1)[C@@H](O)C[C@H](Cc1ccccc1)NC(=O)[C@H](C(C)C)N1CCCNC1=O [Lopinavir]
Terminal t1/2 ([4]; monkey, in vivo, sc): 476.94 (173) hr

CL/F, apparent total clearance [1, 8]: 4.23 (15) L/[hr•kg] | Terminal t1/2 ([1]; Free formulation, single SC dose, macaques, geometric mean (%CV), N=3, listed as Ritonavir (RTV)): 7.99 (38) hr | CL/F, apparent total clearance [1, 9]: 1.43 (56) L/[hr•kg] | AUC(0-t) ([1]; male, monkey, plasma, sc): 1370 ng·h/mL | CL/F ([2]; Free formulation, listed as Free Ritonavir): 3.90 L/[hr•kg] | CL/F ([2]; Free formulation, listed as RTV): ~4 L/[hr•kg] | k21, absorption rate constant [2, 10]: 0.6242 (29) 1/hr | Vd/F ([2]; plasma): 42.4 L/kg | half-life ([2]; plasma): 7.54 h | k el ([2]; plasma): 2.55e-05 s⁻¹ | mean fraction of DcNP-associated drug [3]: 91.1% | Kp [5]: 7.4 | k21, lymphatic entry rate constant, fast pathway [6]: 0.2361 (-) 1/hr | k31, lymphatic entry rate constant, intermediate pathway [6]: 0.1881 (-) 1/hr | k41, lymphatic entry rate constant, slow pathway [6]: 0.0198 (-) 1/hr | tlag2, lymphatic transit lag time, intermediate pathway ([6]; parameter value (%CV)): 38.83 (13) hr | tlag1, lymphatic transit lag time, fast pathway ([6]; parameter value (%CV), listed as RTV): ~2 h | V5_DcNP, apparent volume of distribution of DcNP-associated ARV [6, 11]: 10.09 (27) L/kg | k75, rate constant for release of free ARV from DcNPs in plasma [6, 11]: 0.4336 (5) 1/hr | tlag1, lymphatic transit lag time, fast pathway [6, 11]: 2.13 (51) hr | tlag3, lymphatic transit lag time, slow pathway [6, 11]: 181.87 (11) hr | V7_Free [6, 12]: 67.94 (3) L/kg | k07, clearance rate constant of free ARV from central compartment [6, 12]: 0.0962 (4) 1/hr
SMILES: CC(C)c1nc(CN(C)C(=O)N[C@H](C(=O)N[C@@H](Cc2ccccc2)C[C@H](O)[C@H](Cc2ccccc2)NC(=O)OCc2cncs2)C(C)C)cs1 [Ritonavir]
AUC0-336h, area under the plasma drug concentration-time curve [4, 9]: 4.80 (57) hr•μg/mL | Terminal t1/2 [4, 9]: 44.06 (46) hr

SMILES: C[C@H](Cn1cnc2c(N)ncnc21)OCP(=O)(O)O [Tenofovir]
CL/F, apparent total clearance [1, 8]: 0.72 (4) L/[hr•kg] | MBRT0-24h, mean body residence time [1, 8]: 2.61 (12) hr | CL/F, apparent total clearance [1, 9]: 0.02 (15) L/[hr•kg] | MBRT0-336h, mean body residence time [1, 9]: 102.68 (7) hr | MBRT0-24h fold shorter than those of free LPV and RTV ([1]; free formulation): ~5 fold | plasma level as % of peak ([1]; free formulation, by 10 hr): ~1% | AUC(0-t) ([1]; male, monkey, plasma, sc): 14400 ng·h/mL | Tmax ([1]; male, monkey, plasma, sc): ~1 h | half-life ([1]; male, monkey, plasma, sc, Terminal t1/2, Free formulation, single SC dose, macaques, geometric mean (%CV), N=3): 8.01 h | k23, peripheral to central exchange rate constant ([2]; Free formulation, 2CM): 0.0738 (-) 1/hr | Vβ/F ([2]; Free formulation, 2CM, secondary parameter): 8.65 L/kg | k32, central to peripheral exchange rate constant ([2]; Free formulation, 2CM, parameter value (%CV)): 0.0298 (0) 1/hr | CL/F ([2]; Free formulation): 0.60 L/[hr•kg] | k21, absorption rate constant [2, 10]: 2.3423 (38) 1/hr | k el ([2]; in vivo): 0.000164 s⁻¹ | Vd/F ([2]; in vivo, 10.6 mg/kg): 1.44 L/kg | mean fraction of DcNP-associated drug [3]: 11.2% | Kp [5]: 3.01 | Terminal t1/2 [4, 9]: 65.33 (11) hr | AUC0-336h, area under the plasma drug concentration-time curve ([4]; in vivo, sc): 416.55 (15) hr•μg/mL | k21, lymphatic entry rate constant, fast pathway [6]: 0.1300 (-) 1/hr | k31, lymphatic entry rate constant, intermediate pathway [6]: 0.1588 (-) 1/hr | k41, lymphatic entry rate constant, slow pathway [6]: 0.1779 (-) 1/hr | V5_DcNP, apparent volume of distribution of DcNP-associated ARV ([6]; parameter value (%CV)): 0.17 (22) L/kg | tlag2, lymphatic transit lag time, intermediate pathway ([6]; parameter value (%CV)): 24.04 (19) hr | tlag1, lymphatic transit lag time, fast pathway ([6]; parameter value (%CV), listed as TFV): 0.1 h | k75, rate constant for release of free ARV from DcNPs in plasma [6, 13]: 0.0164 (15) 1/hr | tlag1, lymphatic transit lag time, fast pathway [6, 13]: 0.10 (-) hr | tlag3, lymphatic transit lag time, slow pathway [6, 13]: 122.06 (3) hr | k76, absorption rate constant of free ARV from SC site [6, 14]: 1.4201 (-) 1/hr | k87 [6, 14]: 0.0298 (-) 1/hr | V7_Free [6, 12]: 1.66 (18) L/kg | k07, clearance rate constant of free ARV from central compartment [6, 12]: 0.5824 (2) 1/hr | k78 [6, 12]: 0.0738 (0) 1/hr

SMILES: COc1cccc2c1C(=O)c1c(O)c3c(c(O)c1C2=O)C[C@@](O)(C(=O)CO)C[C@@H]3O[C@H]1C[C@H](N)[C@H](O)[C@H](C)O1 [doxorubicin]
% of SC dose recovered in the blood [7]: 64-74% | % of SC dose recovered in the lymph [7]: 0.063-2%

SMILES: CN(Cc1cnc2nc(N)nc(N)c2n1)c1ccc(C(=O)N[C@@H](CCC(=O)O)C(=O)O)cc1 [methotrexate]
% of SC dose recovered in the blood [7]: 64-74% | % of SC dose recovered in the lymph [7]: 0.063-2%
